Measurements taken from patent US6638546B2 (Council of Scientific & Industrial Research, priority 2001, dated 2003).
“Also recorded” adds a separate entry of the source.

Columns and labels:
[1] = molecular target: T1, M2 receptors (Cavia porcellus, UniProt H0VRN8); test: Dose response curve of acetylcholine on isolated guinea pig atria; settings: for Inhibitory effect on rate and force of contraction of guinea pig atria (M2 block): dosage range used
T1 construct: The atria beat spontaneously; from tissue; host or cells: isolated guinea pig atria
T1 sequence (H0VRN8 1-466): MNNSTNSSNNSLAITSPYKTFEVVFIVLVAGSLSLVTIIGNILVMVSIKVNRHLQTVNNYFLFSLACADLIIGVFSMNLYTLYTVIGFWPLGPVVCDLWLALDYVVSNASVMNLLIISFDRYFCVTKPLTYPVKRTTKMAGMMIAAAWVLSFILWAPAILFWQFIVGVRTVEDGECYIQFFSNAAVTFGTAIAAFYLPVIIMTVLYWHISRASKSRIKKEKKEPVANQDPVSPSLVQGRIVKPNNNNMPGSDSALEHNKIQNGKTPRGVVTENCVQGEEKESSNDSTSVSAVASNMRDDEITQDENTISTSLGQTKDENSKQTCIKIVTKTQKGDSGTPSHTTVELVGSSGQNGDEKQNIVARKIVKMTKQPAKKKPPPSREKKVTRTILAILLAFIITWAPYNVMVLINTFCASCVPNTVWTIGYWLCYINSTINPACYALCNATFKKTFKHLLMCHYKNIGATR
Protocol: The in vitro experiments were performed on atria, ileum and bladder tissues of guinea pig. Atria were removed, and one end was tied to an oxygen tube and the other end was fixed to a Force transducer (Model T-305), which is connected to a physiograph (Biodevices Physiograph). The atria beat spontaneously, and after equilibration (30 minutes), resting tension was adjusted to the peak of the length tension curve followed by a re-equilibration period (30 minutes). Cumulative concentration response curves to acetylcholine were obtained before and after addition of increasing concentrations of the compound (doses said in Example 5). Responses were expressed as a percentage of the maximal inhibition of atrial rate induced by acetylcholine in absence of the antagonist (compound).

[2] = tested on: Salmonella; settings: Salmonella and mammalian microsome assays; cited from earlier work
[3] = rat, in vivo; cited from earlier work
[4] = molecular target: T2, M3 receptors (Cavia porcellus, UniProt H0W1Z3); test: Dose response curve of acetylcholine on isolated guinea pig ileum; settings: 98, 196 and 392×10^−6 moles per ml of bath
T2 construct: from tissue; host or cells: guinea pig longitudinal ileal muscle; guinea pig bladder detrusor strips
Description: (§1) The three doses prepared and applied were 98×10^−6 moles per milliliter of bath concentration; 196×10^−6 moles per milliliter of bath concentration and 392×10^−6 moles per milliliter of bath concentration. For comparative purposes, the three doses of atropine used were 35×10^−6 moles per milliliter of bath concentration; 86×10^−6 moles per milliliter of bath concentration and 173×10^−[…] moles per milliliter of bath concentration.
The longitudinal ileal muscle was suspended in an organ bath in aerated Tyrode solution. […]. Doses of the compound were as given in Example 5.

[5] = molecular target: T2, M3 receptors; test: Dose response curve of acetylcholine on guinea pig bladder detrusor strips; settings: 98, 196 and 392×10^−6 moles per ml of bath
Description: as §1
The longitudinal bladder detrusor strips were suspended under a resting tension (0.5 g) in aerated Tyrode physiological solution. Tension was measured with an isometric force transducer (FT 305), and responses were recorded on a Biodevices Physiograph. Antimuscarinic activity was determined from concentration response curves to acetylcholine in the absence or presence of increasing concentrations of the said compound. Contractile responses were expressed as a percentage of the maximum contraction elicited by acetylcholine in the absence of the said compound.

[6] = molecular target: T3, M1 receptors (Rattus norvegicus, UniProt P08482); test: Basal gastric acidity by pyloric ligation in rats; format: in vivo; settings: for % inhibition of gastric acidity: 15 min before pyloric ligation
T3 construct: from tissue; host or cells: living albino rats (stomach)
T3 sequence (P08482 1-460): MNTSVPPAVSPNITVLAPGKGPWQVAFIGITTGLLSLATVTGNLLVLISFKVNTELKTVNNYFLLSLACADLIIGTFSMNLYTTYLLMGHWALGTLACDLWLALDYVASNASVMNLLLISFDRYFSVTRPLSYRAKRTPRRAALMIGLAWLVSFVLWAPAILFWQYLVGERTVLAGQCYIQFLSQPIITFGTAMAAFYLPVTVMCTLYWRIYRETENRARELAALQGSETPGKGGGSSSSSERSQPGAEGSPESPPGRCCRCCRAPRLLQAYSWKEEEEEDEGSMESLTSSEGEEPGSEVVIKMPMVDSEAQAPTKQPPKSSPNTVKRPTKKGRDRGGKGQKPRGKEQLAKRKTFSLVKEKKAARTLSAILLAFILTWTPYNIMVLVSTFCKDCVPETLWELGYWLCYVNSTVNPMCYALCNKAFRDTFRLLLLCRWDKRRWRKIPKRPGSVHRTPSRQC
Protocol: These activities were tested upon rats. […] For comparative purposes, the doses of atropine used for testing gastric acidity were 0.01 milligram per kilogram of the body weight of rat injected subcutaneously (0.01 mg/kg s.c), 0.05 milligram per kilogram of the body weight of rat injected subcutaneously (0.05 mg/kg s.c), 0.10 milligram per kilogram of the body weight of rat injected subcutaneously (0.10 mg/kg s.c.).
The in vivo experiments for gastric acidity testing were performed by pyloric ligation on rats. Albino rats of either sex weighing 190-250 grams were randomly divided into groups of 6, with a group of 6 rats serving as control. All the rats were starved for 48 hours prior to the experiment. After the first 24 hours, they were given access to 8% sucrose in 0.2% sodium chloride for 8 hours. Water was permitted adlibitum except during the 8 hours of sucrose treatment and 2 hours previous to pyloric ligation.
Basal gastric acidity was determined by pyloric ligation under ether anaesthesia followed by gastric lavage with normal saline. […] Three hours later the animals were killed and the stomach was tied at the oesophageal junction and removed. The contents were collected by cutting along the greater curvature and the free acidity was determined by titration against 0.01 normal NaOH using Topfers reagent as indicator.

T2 sequence (H0W1Z3 1-590): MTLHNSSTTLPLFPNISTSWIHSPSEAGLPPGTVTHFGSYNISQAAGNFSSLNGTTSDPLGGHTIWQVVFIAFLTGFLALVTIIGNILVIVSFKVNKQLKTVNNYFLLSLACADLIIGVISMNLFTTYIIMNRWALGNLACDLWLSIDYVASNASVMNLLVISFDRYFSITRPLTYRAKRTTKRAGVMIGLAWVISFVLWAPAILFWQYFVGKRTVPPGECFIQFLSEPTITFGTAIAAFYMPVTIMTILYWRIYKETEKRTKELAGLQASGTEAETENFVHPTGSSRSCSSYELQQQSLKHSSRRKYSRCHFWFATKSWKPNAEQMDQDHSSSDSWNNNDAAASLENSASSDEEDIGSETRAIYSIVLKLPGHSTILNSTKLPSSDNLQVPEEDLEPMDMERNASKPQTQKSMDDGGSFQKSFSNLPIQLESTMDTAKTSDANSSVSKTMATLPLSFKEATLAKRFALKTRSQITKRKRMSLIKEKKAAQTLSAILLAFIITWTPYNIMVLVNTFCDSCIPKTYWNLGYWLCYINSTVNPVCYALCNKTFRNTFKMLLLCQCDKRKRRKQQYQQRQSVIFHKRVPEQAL

Compound	Inhibitory effect on rate and force of contraction of guinea pig atria (M2 block) [1]	Inotropic or chronotropic effect on its own on guinea pig atrium ([1]; 20, 40, 196 and 392×10^−6 moles per ml of bath)	Mutagenic effect [2]	Oral toxicity [3]	Antagonism of acetylcholine contractions of ileum smooth muscle [4]	Antagonism of acetylcholine on bladder detrusor strips [5]	% inhibition of gastric acidity ([6]; rat, 1 mg/kg s.c.)	% inhibition of gastric acidity ([6]; rat, 3 mg/kg s.c., 3 mg/kg)	% inhibition of gastric acidity ([6]; rat, 5 mg/kg s.c., 5 mg/kg)	Effect on basal gastric (free) acidity ([6]; rat, 1, 3 & 5 mg/kg s.c.)	ED50 ([6]; sc, rat, s.c., read-out: ED50 for inhibition of gastric acidity)
CN1[C@@H]2CC[C@H]1C[C@@H](OC(=O)C(CO)c1ccccc1)C2 (stereo partly drawn) [Atropine, reference compound]	inhibitory effect on all the three receptors	–	–	–	–	–	–	–	–	–	–
CCCCCCCCCCCCCCCC(=O)OC [methyl palmitate]	had no such effect in the dosage range used; also recorded: does not block M2 receptors	did not produce any positive inotropic or chronotropic effect	devoid of any mutagenic effect	nontoxic	antagonised contractions of smooth muscle of the ileum	antagonised the effect of acetylcholine in a dose-dependent and competitive manner	50.72%	55%	91.5%	decreased free acidity; also recorded: inhibited basal gastric acidity dose dependently	2.74 mg/kg
